pIC50: −log10 of the molar value. In brackets after ≈: the same amount, converted by molar mass.
Legend:
[1] = Metabolic stability in rat liver microsomes assessed as compound degradation measured after 30 mins; format: ADME, Microsome; details: read-out: Drug degradation
Ketohexokinase [2] = target: T1, Ketohexokinase (Homo sapiens, UniProt P50053); test: Inhibition of KHK in human HepG2 cells incubated for 3 hrs by Rapidfire MS analysis; format: cell-based
T1 sequence (P50053 whole entry): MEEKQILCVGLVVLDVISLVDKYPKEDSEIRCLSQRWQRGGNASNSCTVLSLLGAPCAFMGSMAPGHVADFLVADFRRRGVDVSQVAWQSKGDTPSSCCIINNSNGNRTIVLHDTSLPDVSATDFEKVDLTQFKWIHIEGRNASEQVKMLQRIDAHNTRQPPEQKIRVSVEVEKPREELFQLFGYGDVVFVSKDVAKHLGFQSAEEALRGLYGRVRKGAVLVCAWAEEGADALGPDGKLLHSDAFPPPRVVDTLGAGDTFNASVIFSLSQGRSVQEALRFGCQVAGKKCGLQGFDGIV

Ketohexokinase [3] = target: T1, Ketohexokinase; test: Inhibition of human KHK-A preincubated for 15 mins followed by substrate addition and measured after 20 mins in presence of ATP by Rapidfire MS analysis
Ketohexokinase [4] = target: T1, Ketohexokinase; test: Inhibition of human KHK-C preincubated for 15 mins followed by substrate addition and measured after 20 mins in presence of ATP by Rapidfire MS analysis
[5] = Permeability in MDCK cells assessed as drug transport measured over 1 hr in presence of P-gp; format: ADME, cell-based, Canis lupus familiaris; details: dog
Hepatocyte = test: Cytotoxicity against rat Primary hepatocyte; format: toxicity, cell-based; details: hepatocytes
[6] = Metabolic stability in mouse liver microsomes assessed as compound degradation measured after 30 mins; format: ADME, Microsome; details: read-out: Drug degradation
[7] = Inhibition of mouse KHK-C
[8] = Clearance in dog hepatocytes measured per 10^6 cells; format: ADME, cell-based, Canis lupus familiaris, Hepatocyte; details: read-out: CLH
[9] = Thermodynamic solubility of the compound […] at pH 7.4; format: physicochemical; details: read-out: Therm_solubility
[10] = Clearance in rat hepatocytes measured per 10^6 cells; format: ADME, cell-based, Hepatocyte; details: read-out: CLH
[11] = Clearance in human hepatocytes measured per 10^6 cells; format: ADME, cell-based, Hepatocyte; details: read-out: CLH
[12] = Metabolic stability in dog liver microsomes assessed as compound degradation measured after 30 mins; format: ADME, Canis lupus familiaris, Microsome; details: read-out: Drug degradation
[13] = Metabolic stability in human liver microsomes assessed as compound degradation measured after 30 mins; format: ADME, Microsome; details: read-out: Drug degradation
[14] = Inhibition of mouse KHK-A
[15] = Cmax in rat at 1 mg/kg, iv measured after 12 hrs; format: ADME, organism-based; set-up: dose 1 mg/kg, time 12 hrs, route iv; details: in vivo
[16] = Clearance in rat at 1 mg/kg, iv measured after 12 hrs; format: ADME, organism-based; details: in vivo
[17] = AUC in rat at 1 mg/kg, iv measured after 12 hrs; format: ADME, organism-based; set-up: time 12 hrs, dose 1 mg/kg, route iv; details: in vivo
[18] = Volume of distribution in rat at 1 mg/kg, iv measured after 12 hrs; format: ADME, organism-based; details: in vivo
[19] = Half life in rat at 1 mg/kg, iv measured after 12 hrs; format: ADME, organism-based; details: in vivo

Structure (SMILES) | metabolised at 0.5 h [1] [%] | pIC50 (Ketohexokinase [2]) | pIC50 (Ketohexokinase [3]) | pIC50 (Ketohexokinase [4]) | Drug transport [5] [%] | LC20 (Hepatocyte) [nM] | metabolised at 0.5 h [6] [%] | pIC50 [7] | hepatocyte CLint [8] [µL/min/1e6 cells] | solubility thermodynamic [9] [µg/mL] | hepatocyte CLint [10] [µL/min/1e6 cells] | hepatocyte CLint [11] [µL/min/1e6 cells] | metabolised at 0.5 h [12] [%] | metabolised at 0.5 h [13] [%] | pIC50 [14] | Cmax [15] [nM] | clearance [16] [mL/min/kg] | AUC at 12 h [17] [µM·h] | Vd [18] [L/kg] | half-life [19] [min]
C[C@H]1CCN1c1nc(-c2cnn(C3CN(C)C3)c2)cc(C(F)(F)F)n1 | 86 | 8.52 | 8.30 | 8.40 | 22 | > 50000 | 87 | 8.70 | 49 | 11 (≈ 31.2 µM) | 29 | 5 | 100 | 20 | – | – | – | – | – | –
C[C@H]1CCN1c1nc(-c2cnn(CC(=O)N3C[C@@H](O)[C@H](O)C3)c2)cc(C(F)(F)F)c1C#N | 0 | 6.96 | – | – | 0.5 | > 50000 | 13 | 8.10 | 1.9 | 19 (≈ 42.2 µM) | 2.2 | 6.1 | 2 | 52 | 8.15 | 1830 | 71 | 0.53 | 3.3 | 36
C[C@H]1CCN1c1nc(-c2cnn(C3CCN(C)CC3)c2)cc(C(F)(F)F)c1C#N | 33 | 7.70 | 8.15 | 8.22 | – | – | 86 | 7.85 | – | 11 (≈ 27.2 µM) | – | – | 36 | 11 | 8.40 | – | – | – | – | –
C[C@H]1CCN1c1nc(-c2cnn(C3CCN(CCO)CC3)c2)cc(C(F)(F)F)c1C#N | 38 | 7.82 | 8.40 | 8.22 | – | 17000 | 32 | 8.10 | – | 38 (≈ 87.5 µM) | – | – | 57 | 26 | – | – | – | – | – | –
C[C@H]1CCN1c1nc(-c2cnn(C3CCN(C(=O)CN)CC3)c2)cc(C(F)(F)F)c1C#N | 5 | 7.80 | 8.22 | 8.22 | – | 16000 | 18 | 8.00 | – | 12 (≈ 26.8 µM) | – | – | 0 | 0 | 8.52 | – | – | – | – | –
C[C@H]1CCN1c1nc(-c2cn[nH]c2)cc(C(F)(F)F)c1C#N | 81 | 7.47 | – | – | 20 | > 50000 | 100 | 7.72 | 150 | 3 (≈ 9.76 µM) | 30 | 49 | 98 | 52 | 8.22 | – | – | – | – | –
C[C@H]1CCN1c1nc(-c2cnn(C3CCNCC3)c2)cc(C(F)(F)F)n1 | 17 | 7.59 | 8.10 | 7.82 | – | 23000 | 8 | 6.80 | – | 410 (≈ 1120 µM) | – | – | 15 | 2 | 7.28 | – | – | – | – | –
C[C@H]1CCN1c1nc(-c2cnn(C3CCOCC3)c2)cc(C(F)(F)F)c1C#N | 98 | 6.93 | 7.48 | 7.42 | – | > 50000 | 98 | 7.21 | – | 31 (≈ 79.2 µM) | – | – | 98 | 49 | 7.40 | – | – | – | – | –
C[C@H]1CCN1c1nc(-c2cnn(CC(=O)N3CCN(C)CC3)c2)cc(C(F)(F)F)c1C#N | 52 | 7.44 | 8.05 | 8.22 | – | 18000 | 93 | 8.15 | – | 7 (≈ 15.6 µM) | – | – | 95 | 60 | 8.40 | – | – | – | – | –
C[C@H]1CCN1c1nc(-c2cnn(CCO)c2)cc(C(F)(F)F)c1C#N | 99 | 7.32 | 8.30 | – | – | – | 99 | 8.15 | – | 1 (≈ 2.85 µM) | – | – | 95 | 52 | 8.40 | – | – | – | – | –
C[C@H]1CCN1c1nc(-c2cnn(CCN(C)C)c2)cc(C(F)(F)F)c1C#N | 83 | 7.09 | 7.66 | 7.55 | – | > 50000 | 100 | 7.36 | – | < 1 | – | – | 100 | 76 | 8.35 | – | – | – | – | –
C[C@H]1CCN1c1nc(-c2cnn(C3CNC3)c2)cc(C(F)(F)F)c1C#N | 26 | 8.70 | 7.82 | 7.82 | – | 31000 | 13 | 8.30 | – | 40 (≈ 110 µM) | – | – | 27 | 15 | 8.10 | – | – | – | – | –
C[C@H]1CCN1c1nc(-c2cnn(C3CNC3)c2)cc(C(F)(F)F)n1 | 11 | 8.22 | 8.40 | 8.30 | 12 | 48000 | 21 | 8.52 | 4.4 | 450 (≈ 1330 µM) | 11 | 2.5 | 20 | 7 | 7.89 | – | – | – | – | –
CC(=O)N1CCC(n2cc(-c3cc(C(F)(F)F)c(C#N)c(N4CC[C@@H]4C)n3)cn2)CC1 | 30 | 7.02 | – | – | – | – | 66 | 7.35 | – | 7 (≈ 16.2 µM) | – | – | 32 | 45 | 7.72 | – | – | – | – | –
C[C@H]1CCN1c1nc(-c2cnn(C3CCNCC3)c2)cc(C(F)(F)F)c1C#N | 2 | 8.30 | 8.40 | 8.40 | 8.7 | < 9000 | 24 | 8.22 | 4.9 | 39 (≈ 99.9 µM) | 3.7 | 3.5 | 11 | 0 | 8.70 | – | – | – | – | –
